Earlier results on one compound are cited in patent publication US9907807B2, “Topical pharmaceutical compositions” (Almirall, S.A., priority 2010, dated 2018).

Molecules are shown by their SMILES.

As to `C[C@@H]1C[C@H]2[C@@H]3CCC4=CC(=O)C=C[C@]4(C)[C@@]3(Cl)[C@@H](O)C[C@]2(C)[C@@]1(OC(=O)c1ccco1)C(=O)CCl` [Mometasone furoate, 9α,21-dichloro-11β,17-dihydroxy-16α-methylpregna-1,4-diene-3,20-dione 17-(2-furoate)], the “solubility in ethyl alcohol” value (ethyl alcohol) is on record as “moderately soluble”. Moreover, the solubility in octanol entry (octanol) is “slightly soluble”. In addition, under “water”, the solubility in water entry is recorded as “insoluble”.
